Measurements from US20110263539A1, “SHIP 1 MODULATOR COMPOUNDS” (THE UNIVERSITY OF BRITISH COLUMBIA, priority 2006, published 2011).

Legend:
J774.1a macrophage cells = test: Macrophage TNF-α NO assay (Assay 3); format: cell-based; details: 10 μg/ml test compound, LPS, 24 hr, Griess reagent; further: key: a ‘+’ indicates a positive result for desired activity; a ‘−’ indicates a negative result for desired activity
Experimental: Assay 3) Macrophage TNF-α NO assay. J774.1a macrophage cells were treated with 10 μg/ml of test compound dissolved in solvent for 40 minutes prior to the addition of LPS. Culture supernatants were collected after 24 hr. for determination of NO concentration using the Griess reagent.

Mast cells = test: Stimulation of mast cells by FcεRI crosslinking (Assay 4); format: cell-based; details: anti-DNP IgE, DNP-HSA
Experimental: Assay 4) Stimulation of mast cells by FcåRI crosslinking. Mast cells were pre-loaded overnight in BMMC medium lacking IL-3 with 0.1 μg/ml anti-DNP IgE (SPE-7, Sigma, Oakville, Ont). For calcium flux measurements, cells were incubated with 2 μM fura 2-acetoxymethyl ester (Molecular Probes, Eugene, Oreg.) in Tyrode's buffer at 23° C. for 45 min. Cells were then washed and incubated in the presence of the test compound 30 min prior to stimulation with the indicated concentration of DNP-human serum albumin (DNP-HSA). Calcium influx was monitored by spectrofluorometry as described previously. For analysis of intracellular signaling, cells were pre-loaded with anti-DNP IgE as above, pre-treated with the test compound for 30 min at 37° C. and stimulated with 20 ng/ml DNP-HSA for 5 min. Total cell lysates were then prepared and analyzed for phospho-PKB, phospho-p38^MAPK, phospho-MAPK, Grb-2 (Cell Signalling, Mississauga, Ont) and SHIP^6 by immunoblot analysis.

SHIP C2 domain = test: Scintillation proximity assay, C2 domain; format: binding; details: [3H]-Compound 100, SPA beads
Experimental: (§1) Compound 100 was radiolabelled with tritium by GE Healthcare (Piscataway, N.J.) to a specific activity of 42 Ci/mmole. Copper chelate (His-Tag) YSi SPA Scintillation Beads (GE Healthcare, Piscataway, N.J.) were diluted in 0.25% BSA/TBS to 1.5 mg/mL and recombinant, His6-tagged protein added at the indicated concentrations: wild-type (1 μM), ΔC2 SHIP enzyme (1 pM) or C2 domain (10 nM). Protein was allowed to bind 1 h at 23° C., and 250 μg of beads were aliquoted per well of a 96-well plate. 5 μCi of [^3H]-Compound 100 was added per well, the plate gently agitated for 30 min and the amount of bead associated radioactivity quantified by counting in a Wallac BetaPlate plate scintillation counter.
(§2) Isolated recombinant, His6-tagged C2 domain was expressed and its PI-3,4-P2 binding ability was determined using protein lipid overlay assays. Purified C2 domain was incubated with membrane strips spotted with PI-3,4-P2 and bound protein detected using an anti-His6 antibody. As shown in FIG. 11C the C2 domain bound PI-3,4-P2 and this binding was inhibited by Compound 100, consistent with both Compound 100 and PI-3,4-P2 interacting with the C2 domain at a common binding site.

wild-type SHIP = test: Scintillation proximity assay, wild-type and ΔC2 SHIP; format: binding; details: [3H]-Compound 100, SPA beads
Experimental: as §1, §2

[1] = system: 100 protein kinase and phosphatase targets; test: Profiling on 100 protein kinase and phosphatase targets; format: biochemical; details: 2 μM final concentration
Experimental: Compound profiling activity was undertaken using 100 protein kinase and phosphatase targets by SignalChem (Richmond, BC, Canada. www.signalchem.com) against compound Compound 100 (2 μM final concentration). Protein kinase assays were performed in the presence of 50 μM ATP at 30° C. for 15 min. Protein phosphatase activities were determined using pNPP as substrate and were also performed at 37° C. for 15 min. The activity of the enzymes in the presence of Compound 100 was compared to that in the vehicle control and expressed as a % change in activity relative to that observed in the vehicle control. Changes in activity of <25% were not considered significant. Enzymes affected by Compound 100 are plotted in an expanded graph in FIG. 12B.

## Cc1cc(O)cc2c1[C@]1(C)CCC3C(C)(C)CCC[C@]3(C)[C@H]1C2 (some centres unmarked) [Compound 100]
J774.1a macrophage cells
  Assay Number 3: Macrophage NO: +
Mast cells
  Assay Number 4: Stimulation of mast cells by FcεRI crosslinking: +
SHIP C2 domain
  binding to C2 domain: directly bind the C2 domain
wild-type SHIP
  binding to wild-type SHIP vs SHIP lacking C2 domain: bound to wild-type SHIP but not to SHIP lacking its C2 domain
[1]
  off-target effects: minimal off-target effects
